How the values were obtained:
Mfd = Mfd (Salmonella typhimurium, UniProt Q8ZQ01); assay: biochemical; design: species or system S. typhimurium
Method: FIGS. 2A-2D depict how ARM-1 affects Mfd's biochemical activity. FIG. 2A depicts how the kd of ARM-1 was determined using microscale thermophoresis. Data shown represent a minimum of three independent experiments. FIG. 2B depicts a NADH-coupled ATPase assay. ATP hydrolysis by Mfd was coupled to NADH oxidation. Phosphoenolpyruvate is converted to pyruvate by pyruvate kinase, transferring a phosphate group onto ADP, which is only present in the reaction following ATP hydrolysis by Mfd. Pyruvate is then converted to lactate by lactate dehydrogenase, oxidizing NADH to NAD^+. Absorbance at 340 nm by NADH is used to monitor the reaction. Data shown represent a minimum of 3 biological replicates. FIG. 2C depicts a transcription roadblock assay. A P32-labled 176 bp PCR fragment was incubated with E. coli RNAP along with saturating concentrations of ATP, GTP, and UTP. 100 nM S. typhimurium ST19 Mfd preincubated with indicated concentrations of ARM-1 was added and the reaction allowed to proceed for 6 minutes. DNA products were then resolved on a polyacrylamide gel and analyzed by phosphorimaging. […] Quantification of these gels is shown below each lane. […]
ATPase assays were performed as described in Kiiansita et al., 2003. […] To start reaction, varying quantities of ATP were added and absorbance at 340 nm was measured every 60 seconds for 1 hour in an Epoch2 microplate spectrophotometer (BioTek). […]

S. typhimurium ST19 = assay: Luria-Delbruck fluctuation assay; format: cell-based; details: 100 μM ARM-1, plated on 80 ng/ml ciprofloxacin
Method: FIGS. 3A-3C depict how ARM-1 reduces mutation frequency in culture and during infection. FIG. 3A depicts a Luria-Delbruck fluctuation assay with ARM-1 treatment. Single colonies of WT and Δmfd S. typhimurium ST19 were used to inoculate overnight cultures with appropriate antibiotic selection. Cultures were then diluted back to OD600 0.0005 and grown to OD600 0.5 with or without 100 μM ARM-1 treatment. Samples were plated on 80 ng/ml ciprofloxacin and grown overnight, then enumerated the following day. Data shown are the result of a minimum of 50 replicates. FIG. 3B depicts the invasion and infection efficiency in the presence of ARM-1. WT S. typhimurium ST19 in mid-log phase growth was used to infect HeLa cells. Invasion was allowed to proceed for 1 hour before uninternalized bacteria were removed and fresh media applied, containing vehicle control or 31.25 μM ARM-1. At the indicated timepoints, HeLa cells were lysed using 1% Triton-H2O and intracellular bacteria serially diluted and plated on LB for CFU enumeration. FIG. 3C depicts mutation frequency post mammalian cell infection. WT and Δmfd S. typhimurium ST19 were used to infect HeLa cells as described in FIG. 3B. Following infection, intracellular bacteria were harvested and plated on 50 μg/mL 5-fluorocytosine and grown overnight. Mutants were enumerated the following morning. […]

HeLa cells = assay: Mammalian cell cytotoxicity (CellTox Green); format: cell-based; details: during the timeframe of the infection experiment
Method: FIGS. 9A-9B depict the cytotoxicity of ARM-1 against indicated mammalian cell lines. FIG. 9A depicts toxicity reported from original Calibr screen data against HEK293T and HepG2 cell lines. FIG. 9B depicts toxicity determined using Promega CellTox reagents following 8 hours of exposure of HeLa, Caco-2, and HEK293 cells to varying concentrations of ARM-1. Relative fluorescent units (RFUs) reported relative to solvent and no substrate controls.
Cytotoxicity of ARM-1 against HeLa, Caco-2, and HEK293 cells was determined using CellTox Green Cytotoxicity Assay (Promega) according to manufacturer instructions. ARM-1 was diluted in DMSO and applied to the culture such that final concentrations of DMSO were less than 0.05%. Reported toxicity is relative to a DMSO only control. Cells were incubated with ARM-1 for 24 hours prior to addition of reporter dye. Fluorescence was read on a BioTek Synergy Neo plate reader.

S. typhimurium = assay: Growth curves with increasing concentrations of ARM-1; format: cell-based
Method: (§1) FIG. 10 depicts growth curves of indicated species in the presence of increasing concentrations of ARM-1. Precultures of each species were grown with appropriate antibiotic selection, then diluted back to OD600 0.05 in a 96 well plate. Indicated concentrations of ARM-1 were added, and plates incubated overnight at 37° C. with shaking. OD measurements taken every 60 s by BioTek plate reader. Data shown are representative of at least 6 biological replicates. Growth curve for S. typhimurium also confirms MIC of 400 μM ARM-1 for this species, with no growth observed over the experimental timeframe.

all species tested = assay: as above; format: cell-based; details: across all species tested
Method: as §1

Chain of Mfd (Q8ZQ01 entry or part of it): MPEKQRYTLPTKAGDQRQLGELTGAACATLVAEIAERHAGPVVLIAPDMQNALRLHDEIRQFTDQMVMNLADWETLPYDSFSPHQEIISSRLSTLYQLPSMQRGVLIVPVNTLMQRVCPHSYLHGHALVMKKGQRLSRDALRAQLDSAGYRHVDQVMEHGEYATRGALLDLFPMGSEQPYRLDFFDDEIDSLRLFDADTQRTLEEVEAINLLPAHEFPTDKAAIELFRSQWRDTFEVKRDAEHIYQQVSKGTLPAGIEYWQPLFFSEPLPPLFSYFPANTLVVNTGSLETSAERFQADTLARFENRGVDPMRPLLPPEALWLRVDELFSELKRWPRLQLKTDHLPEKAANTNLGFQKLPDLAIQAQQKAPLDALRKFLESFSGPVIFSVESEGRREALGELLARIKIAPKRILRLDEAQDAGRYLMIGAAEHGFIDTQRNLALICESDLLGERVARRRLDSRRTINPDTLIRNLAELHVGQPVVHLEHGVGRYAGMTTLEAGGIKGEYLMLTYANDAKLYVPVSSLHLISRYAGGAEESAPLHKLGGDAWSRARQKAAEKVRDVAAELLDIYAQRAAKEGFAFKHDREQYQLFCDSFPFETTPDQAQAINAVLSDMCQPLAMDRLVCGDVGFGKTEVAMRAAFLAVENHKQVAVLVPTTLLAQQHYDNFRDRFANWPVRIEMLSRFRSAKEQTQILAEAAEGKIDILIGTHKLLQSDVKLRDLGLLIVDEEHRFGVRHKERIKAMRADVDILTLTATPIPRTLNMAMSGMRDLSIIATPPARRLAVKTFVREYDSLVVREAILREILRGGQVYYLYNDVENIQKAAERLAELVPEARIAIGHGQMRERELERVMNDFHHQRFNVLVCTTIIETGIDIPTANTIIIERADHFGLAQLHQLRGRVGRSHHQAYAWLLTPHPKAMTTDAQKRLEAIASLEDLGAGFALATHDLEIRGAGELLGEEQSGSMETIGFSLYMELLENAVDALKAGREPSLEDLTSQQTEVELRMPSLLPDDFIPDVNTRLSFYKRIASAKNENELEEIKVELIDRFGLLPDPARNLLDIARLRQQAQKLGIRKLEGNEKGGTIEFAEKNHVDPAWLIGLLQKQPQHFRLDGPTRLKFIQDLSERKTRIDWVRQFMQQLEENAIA

## Cc1cc(Br)ccc1-c1ccc(CNCCCN(C)C)o1 [ARM-1, N^1-((5-(4-bromo-2-methylphenyl)furan-2-yl)methyl)-N^3,N^3-dimethylpropane-1,3-diamine]
Mfd; 6.25 μM to 50 μM ARM-1, ratios of 125 to 1000 ARM-1 per Mfd
  ATP hydrolysis by Mfd: dose dependent increase
Mfd; 50 μM ARM-1, read-out: ATPase activity enhancement
  fold induction at 50 µM: ~3
S. typhimurium ST19
  reduction in WT mutation frequency: 3 fold
HeLa cells
  cytotoxic effects on HeLa cells: no cytotoxic effects
S. typhimurium; Salmonella enterica, TYPHIMURIUM, growth curve, no growth observed over the experimental timeframe
  MIC: 400 µM
S. typhimurium; at the ARM-1 concentrations used for ChIP
  growth defects: no growth defects
All species tested
  doubling time, treated versus untreated population: consistent
